{"source": "patent US20050170966A1", "about": "“Surfactants and surfactant compositions” (priority 2002, published 2005)", "format_in_all_cases": "in vivo", "key": {"[1]": {"test_system": "mixtures of weeds: Cockspur (Echinochloa crus-galli), Fat-hen (Chenopodium album), Smartweed (Polygonum persicaria)", "assay": "Field trial: adjuvant effect on Glyphosate herbicidal activity on mixed weed plots", "conditions": "glyphosate 1080 g(a.e.).ha^-1, adjuvant 540 g.ha^-1 (2:1)", "description": "This Example tests the effect of adjuvants on Glyphosate herbicidal activity under field conditions. The herbicide was applied to test plots of weeds at a rate of 1080 g(a.e.).ha^−1 (350 l.ha^−1 of spray containing 3.086 g.l^−1 a.e.) with a weight ratio of active to adjuvant of 2:1=540 g(adjuvant).ha^−1. Spray plots were treated with the herbicide formulations, one of each of four adjuvants of the invention (SE1, SE2, SE3, and SE4) a fatty amine ethoxylate (FAE1) for comparison, or left untreated as controls (no weed control). The spray plots were in a completely randomised block design with 3 replicates of 3×5 m plots. the sprayed plots were sprayed using a compressed-air AZO sprayer at a pressure of 2.5 bar, equipped with Teejet XR80015VS nozzles. During this trial, it rained for about 15 minutes about 2 hours after spraying, giving a good indication of the rainfastness off the formulations tested.\nThe test plots used mixtures of the following weeds at the 2 to 4 leaf stage:\nThe results of spraying were evaluated by visual comparison with untreated control blocks 12, 20 and 35 days after treatment (DAT), assessing chlorosis (chlor) and growth inhibition (inhib) as percentages with 0=no effect and 100=complete kill as compared with the untreated controls."}, "Italian ryegrass": {"test_system": "Italian ryegrass", "assay": "Field trial of glyphosate formulations with adjuvant", "conditions": "It R; 6 DAT; glyphosate 1080 g(a.e).ha^-1, adjuvant 405 g.ha^-1", "description": "(§1) In this Example, adjuvants of the invention (SE2), plus TAE1 as control, were tested in field trials in formulations including glyphosate (isopropylamine salt) as a herbicide on flax, pea, Savoy cabbage (Sav C) and Italian ryegrass (It R) as target crops. The application rate was 1080 g(a.e).ha^−1, with adjuvant at an application rate of 405 g.ha^−1 (75% of the normal application rate for adjuvants in such formulations of 540 g.ha^−1). The effectiveness of the formulations was by visual assessment of Growth Reduction (Gr Red) and Chlorosis/Necrosis (Chlor) 6 DAT with the values being reported in % (related to an untreated control=0% effect)."}, "flax": {"test_system": "flax", "assay": "Field trial of glyphosate formulations with adjuvant", "conditions": "6 DAT, glyphosate 1080 g(a.e).ha^-1, adjuvant 405 g.ha^-1", "description": "as §1"}, "Savoy cabbage": {"test_system": "Savoy cabbage", "assay": "Field trial of glyphosate formulations with adjuvant", "conditions": "Sav C; 6 DAT; glyphosate 1080 g(a.e).ha^-1, adjuvant 405 g.ha^-1", "description": "as §1"}, "pea": {"test_system": "pea", "assay": "Field trial of glyphosate formulations with adjuvant", "conditions": "6 DAT, glyphosate 1080 g(a.e).ha^-1, adjuvant 405 g.ha^-1", "description": "as §1"}}}
{"substance": "1-[Bis-(2-hydroxyethyl)-amino]-2-hydroxypropane-3-(Alc1 15-ethoxylate) [SE2]", "values": [{"measurement": "inhib (%) growth inhibition", "setting": "[1]; 12 DAT", "value": 70, "unit": "%"}, {"measurement": "chlor (%) chlorosis", "setting": "[1]; 12 DAT, 0=no effect, 100=complete kill", "value": 68, "unit": "%"}, {"measurement": "chlor (%) chlorosis", "setting": "[1]; 20 DAT", "value": 75, "unit": "%"}, {"measurement": "inhib (%) growth inhibition", "setting": "[1]; 20 DAT", "value": 75, "unit": "%"}, {"measurement": "chlor (%) chlorosis", "setting": "[1]; 35 DAT", "value": 77, "unit": "%"}, {"measurement": "inhib (%) growth inhibition", "setting": "[1]; 35 DAT", "value": 77, "unit": "%"}, {"measurement": "Chlor (%) Chlorosis/Necrosis", "setting": "Italian ryegrass", "value": 50, "unit": "%"}, {"measurement": "Chlor (%) Chlorosis/Necrosis", "setting": "flax", "value": 50, "unit": "%"}, {"measurement": "Gr Red (%) Growth Reduction", "setting": "flax", "value": 30, "unit": "%"}, {"measurement": "Chlor (%) Chlorosis/Necrosis", "setting": "Savoy cabbage", "value": 40, "unit": "%"}, {"measurement": "Chlor (%) Chlorosis/Necrosis", "setting": "pea", "value": 80, "unit": "%"}, {"measurement": "Gr Red (%) Growth Reduction", "setting": "pea", "value": 55, "unit": "%"}]}
